Laboratory results as given in patent publication US7935525B2, “Inhibition of ATF2 activity to treat cancer” (Mount Sinai School of Medicine, priority 2001, dated 2011).
Values belong to the molecule of their own block, whether it stands above or below them. No end group written: not given here.

How the values were obtained:
LU1205 cells = test: Apoptosis by FACS (hypodiploid fraction); assay type: cell-based, human; design: Adriamycin induced programmed cell death, increase compared with control: dose or concentration left out as unconfirmed
Experimental: (§1) Treatment and apoptosis studies of stably transfected melanoma cells. Cells were exposed to UVC at 75 J/m^2 as previously described (Ronai, Z., et al., Oncogene 1998; 16:523-531). SB203580 (1-10 μM) (Calbiochem®, San Diego, Calif.), NCS (50-100 ng/ml) and mitomycin C (MMC) (0.2-1 μM) were used to treat melanoma cells. Flow cytometric analysis was performed on a FACSCalibur™ flow cytometer (Becton Dickinson) using CellQuest™ software as described previously (Nicoletti et al., J. Immunol. Methods 1991; 139:271-279). Cells were pelleted and resuspended in 0.5 ml of hypotonic buffer with 0.1% Triton X-100 containing PI (40 μg/ml) and DNase-free RNase A (1 mg/ml). Cells were incubated at 37° C. for 30 min and analyzed on a FACSCalibur™ flow cytometer (Becton Dickinson). The percentage of cells to the left of the diploid G0/1 peak, characteristic of hypodiploid cells that have lost DNA, was defined as the percentage of apoptotic cells. Analysis was performed with light scatter gating. Surface expression of Fas was determined using anti-Fas-PE antibody (PharMingen® CA) and flow cytometric analysis. Cell surface expression is measured as mean fluorescence intensity (MFI).

LU1205 tumor cells = test: Growth of transplanted LU1205 tumors in mice; assay type: in vivo; conditions: single agent: inhibitor injected into tumor, or peptide expressed in tumor cells
Experimental: (§2) Tumor growth and metastasis evaluation in vivo. Cell lines established in culture to constitutively or inducibly express the peptide were injected into mice subcutaneously (S.C.). LU1205, FEMX and SW-1 cells that expressed control or peptide II were trypsinized, resuspended in PBS and injected SC (1×10^6) into 6-7 week old mice in the lower flank. When the tumor reached the size of about 50 mm^3, 5 μM of SB203580 was injected into four areas of the LU1205 tumors every 4 days during a 2-week period. For FEMX tumors UCN-01 (2.5 mg/kg) was fed by gavage twice a day, three times per week for a total of 2 weeks. Tumor growth was monitored every two days. SW-1 cells expressing peptide II under tet-inducible vector were injected SC (1×10^6). When tumors reached a size of about 50 mm^3, the mice received doxycycline in their drinking water ([…]) for a total of 2-4 weeks. At the end of the experiment, the tumors were excised and weighed. The lungs and other organs were subjected to histopathological examination to detect metastatic lesions.

[1] = test system: human melanocytes (FOM71); test: Apoptosis by FACS (hypodiploid fraction); assay type: cell-based; conditions: melanocytes; SB203580 or NCS (100 ng/ml); 36 h
Experimental: as §1

FEMX tumor cells = test: Growth of transplanted FEMX tumors in mice; assay type: in vivo; conditions: single agent: UCN-01 by gavage, or peptide expressed in tumor cells
Experimental: as §2

[2] = test system: ATF2 transcriptional output; test: Jun-2-Luc activities in peptide IV-expressing cells; assay type: cell-based
[3] = test system: WM1552 early-phase melanoma cell line; test: Apoptosis by FACS (hypodiploid fraction); assay type: cell-based, human; conditions: peptide-expressing WM1552; UV-C 75 J/m2; 36 h
Experimental: as §1

[4] = test system: Adriamycin-resistant MCF7 cell line (MCF7-Adr); test: Apoptosis by FACS (hypodiploid fraction); assay type: cell-based, human; conditions: peptide-expressing MCF7-Adr; neo controls 3-fold; 36 h
Experimental: [Worded in the source for another cell line; this cell line is reported under the same test.] as §1

[5] = test system: MCF7 breast cancer-derived cell line; test: Apoptosis by FACS (hypodiploid fraction); assay type: cell-based, human; conditions: peptide-expressing MCF7; UV; 36 h
Experimental: [Worded in the source for another cell line; this cell line is reported under the same test.] as §1

FEMX cells = test: Apoptosis by FACS (hypodiploid fraction); assay type: cell-based, human; conditions: peptide-expressing FEMX; UV-C 75 J/m2; 36 h; neo control 13%
Experimental: as §1

ATF2 [6] = test: ATF2 phosphorylation in peptide-expressing melanoma cells; assay type: cell-based, human; conditions: UV-treated; vs control vector cells
Fas promoter = Fas promoter activity (-460 Fas promoter region); assay type: cell-based, human; conditions: peptide-expressing LU1205
[7] = test system: 293T human kidney embryonic cells; test: Apoptosis by FACS (hypodiploid fraction); assay type: cell-based; conditions: peptide-expressing 293T; normal growth conditions
Experimental: [Worded in the source for another cell line; this cell line is reported under the same test.] as §1

FEMX melanoma cell line = test: Colony forming efficiency (CFE) resistance assay; assay type: cell-based, human; conditions: peptide-expressing FEMX vs neo control; UV-treatment; 14 days
Experimental: (§3) Radiation resistance. Cells (500 or 1500 per well) were plated in triplicates on 6 well plates, 24 h before treatment (Ronai et al., Oncogene 1998; 16:523-531). In all cases, plating efficiency was pre-determined so that number of cell plated was normalized respectively. Colonies (greater than 50 cells per clone) were stained with crystal violet solution (3% in 10% methanol and PBS), 14 days After treatment. % of CFE in each treatment group was calculated based on total CFE formed in the respective controls (100%).

[8] = test system: LU1205 melanoma cell line; test: Colony forming efficiency (CFE) resistance assay; assay type: cell-based, human
Experimental: as §3

Fas = test: Cell surface expression of Fas by FACS; assay type: cell-based, human; conditions: peptide-expressing LU1205; control 122
Experimental: as §1

ATF2 [9] = test: GST binding assay; conditions: GST pull-down
Experimental: (§4) Electrophoretic mobility shift assays were performed as described. (Ivanov and Ronada, J Biol Chem 1999; 274(20):14079-89). GST binding assays were performed with GST-peptide II as described (Adler et al., Proc Natl Acad Sci USA 1995; 92 10585-9). SW1 cells expressing control vector or peptide II were subjected to FACS analysis following their incubation with antibodies to the cell surface receptor of FAS as described above.

JNK = test: GST binding assay; conditions: GST pull-down; greater binding in extracts of UV-treated cells
Experimental: as §4

Molecule: COc1cccc2c1C(=O)c1c(O)c3c(c(O)c1C2=O)C[C@@](O)(C(=O)CO)C[C@@H]3O[C@H]1C[C@H](N)[C@H](O)[C@H](C)O1 [Adriamycin®, reference compound]
- Adriamycin induced programmed cell death, increase compared with control (LU1205 cells; LU1205, ADR alone): 2 fold

Molecule: C[S+]([O-])c1ccc(-c2nc(-c3ccncc3)c(-c3ccc(F)cc3)[nH]2)cc1 (centres unmarked) [SB203580, reference compound]
- tumor cell growth (LU1205 tumor cells): almost no effect
- changes in degree of apoptosis [1]: neither NCS nor SB203580 elicited any significant changes

Molecule: CN[C@@H]1C[C@H]2O[C@@](C)([C@@H]1OC)n1c3ccccc3c3c4c(c5c6ccccc6n2c5c31)C(=O)N[C@H]4O [UCN-01, 7-hydroxystaurosporine, reference compound]
- tumor cell growth (FEMX tumor cells): little effect, if any

Molecule: neocarzinostatin [NCS]
- changes in degree of apoptosis [1]: neither NCS nor SB203580 elicited any significant changes

Molecule: peptide IV: ATF2 peptide of amino acid residues 150-200, expressed from pcDNA3 with HA-penetratin tag (EVPLAQTAQPTSAIVRPASLQVPNVLLTSSDSSVIIQQAVPSPTSSTVITQ; not fully specified; also: HA-penetratin tag, position not given here; UniProt P15336 150-200, looked up, fragment)
- increase in degree of apoptosis over control neo cells given Adriamycin and verapamil (LU1205 cells; peptide-expressing LU1205, Adriamycin + verapamil): 70%
- apoptotic fraction of UV-treated cells (LU1205 cells; peptide-expressing LU1205, UV-C 75 J/m2, 36 h, neo control 15%): 10%
- increase in the degree of cell death (LU1205 cells; peptide-expressing LU1205, higher doses (10 μM) of SB203580, 36 h): 2 fold
- increase in cell death (LU1205 cells; peptide-expressing LU1205, low doses of SB203580, 36 h): did not alter the degree of cell death
- transcriptional output measured via Jun-2-Luc activities [2]: elevated transcriptional output
- sensitization to UV-induced apoptosis [3]: did not cause higher level of apoptosis
- increase in apoptosis following UV-treatment [4]: greater than 4 fold
- decrease in the degree of apoptosis after UV-treatment compared with MCF7 neo control cells [5]: 5 fold
- apoptotic fraction of UV-treated cells (FEMX cells): 8%
- ATF2 phosphorylation after UV-treatment (ATF2 [6]): higher degree of increase in ATF2 phosphorylation
- Fas promoter mediated transcription (Fas promoter): decrease in Fas promoter mediated transcription
- increase in the degree of basal apoptosis [7]: 15 fold
- increase in the % of CFE (FEMX melanoma cell line): ≤ 2.5 fold
- increase in the resistance to NCS (CFE) ([8]; peptide-expressing LU1205, low dose of NCS): ~2 fold
- increase in the % of CFE ([8]; peptide-expressing LU1205 vs neo control, UV-treatment, 14 days): ≤ 2.5 fold
- cell surface expression of Fas, mean fluorescence intensity (Fas): did not cause major changes

- association with ATF2 (ATF2 [9]): weaker association
- association with JNK (JNK): equivalent association
B1: amino acid residues 1-115: larger region of the amino-terminal ATF2 domain (amino acid residues 1-115) (protein, UniProt P15336 1-115, looked up, fragment)
chain: MKFKLHVNSARQYKDLWNMSDDKPFLCTAPGCGQRFTNEDHLAVHKHKHEMTLKFGPARNDSVIVADQTPTPTRFLKNCEEVGLFNELASPFENEFKKASEDDIKKMPLDLSPLA
